# In patent US20240327351A1, “AMIDE AND ETHER SUBSTITUTED N-(1H-INDOL-7-YL)BENZENESULFONAMIDES AND USES THEREOF” (TRIANA BIOMEDICINES, INC., priority 2021, published 2024):
# pEC50, pIC50: −log10 of the molar value.
# How the values were obtained:
# DCAF15 = DCAF15 (Homo sapiens, UniProt Q66K64); test: HTRF competition assay, binary interaction between compounds and DCAF15; assay type: binding; conditions: competition with Alexa Fluor 647 tracer, His-tagged DCAF15 complex
# Method: Example 7: Measurement of Binary Interaction Between Compounds And DCAF15 Using Homogeneous Time Resolved Fluorescence (HTRF)
# DCAF15 interactions with test compounds were monitored using HTRF competition assays (Cisbio, Bedford, MA). Test compounds were first collected in a 384-well microplate (cat. #781280, Grenier Bio-One, Monroe, NC) as 10 mM stocks in 100% dimethyl sulfoxide (DMSO). A second stock plate (cat. #781280, Grenier Bio-One, Monroe, NC) was prepared through 3-fold serial dilution in DMSO of the afore-mentioned stocks using a Mosquito HTS dispenser (mosquito@ HTS, SPT Labtech, Boston, MA). 0.2 ul of these diluted stocks were then dispensed into a 384-well Optiplate (cat. #6007290, Perkin Elmer, Waltham, MA) in duplicate wells, to assemble the assay plate. The tracer molecule containing an Alexa Fluor 647 probe was prepared in 25 mM HEPES pH 7.5, 100 mM NaCl, 0.1 mg/ml BSA, 0.005% Tween 20, 0.5 mM TCEP (dilution buffer) to 612 nM (2.04×). Separately, His-tagged DCAF15 complex was prepared at 32 nM (4×) in the dilution buffer, and mAb Anti-6His-Eu cryptate Gold (cat. #61H12KLA, Cisbio, Bedford, MA) at 4× dilution in the detection buffer (cat. #61 DB9RDF, Cisbio, Bedford, MA). These two solutions were mixed and incubated for 15 min at room temperature. 9.8 ul of the tracer solution and 10 ul of the DCAF15/mAb Anti-6His-Eu cryptate Gold mixture were added sequentially to each well in the assay plate. Reaction mixtures with no DCAF15 added were included as positive controls. The final mixture was incubated for an hour at room temperature and spun down briefly before data collection at 615 nm and 666 nm using En Vision 2104 Multilabel Plate Reader (Perkin Elmer, Bedford, MA). Binding was estimated based on ratiometric analysis and titration curves were generated in GraphPad Prism (7.00, GraphPad, La Jolla, CA).
# DCAF15/RBM39 = DCAF15/RBM39 (Homo sapiens, UniProt Q14498+Q66K64); test: AlphaLISA compound-induced DCAF15-RBM39 ternary complex formation; assay type: binding; conditions: His-tagged DCAF15 complex and biotin-carrying RBM39
# Method: Example 6: Quantitative Evaluation of Compound-Induced Ternary Complex Formation Using Amplified Luminescent Proximity Homogeneous Assay
# Compound-induced DCAF15-RBM39 ternary complex formation was monitored using AlphaLISA® assays (Perkin Elmer, Waltham, MA). Test compounds were first collected in a 384-well microplate (cat. #781280, Grenier Bio-One, Monroe, NC) as 2 mM stocks in 100% dimethyl sulfoxide (DMSO). These stocks were then serially diluted in DMSO by 3-fold into a new plate (cat. #781280, Grenier Bio-One, Monroe, NC) using a Mosquito HTS dispenser (mosquito@ HTS, SPT Labtech, Boston, MA). 0.2 ul of these diluted stocks were then dispensed into a 384-well Optiplate (cat. #6007290, Perkin Elmer, Waltham, MA) in duplicate wells, to assemble the final assay plate consisting of duplicated dose ranges. Separately, a protein mixture consisting of His-tagged DCAF15 complex and biotin-carrying RBM39, each at 408 nM (2.04×), was prepared in 50 mM HEPES, pH 7.5, 100 mM NaCl, 2 mM MgCl2, 0.1% BSA, 2 mM TCEP, 0.05% Tween-20 (dilution buffer). 9.8 ul of this protein mixture was then mixed with the compounds in the assay plate and incubated for one hour at room temperature. Reaction mixtures with no compounds added were included as negative controls, while a His-tagged and biotinylated GST protein was included to track general assay performance. Nickel Chelate AlphaLISA Acceptor beads (cat. #AL108M, Perkin Elmer, MA) and AlphaScreen Streptavidin Donor beads (cat. #6760002, Perkin Elmer, Waltham, MA) were prepared separately in the dilution buffer as 4× stocks (80 ug/ml). The beads were then added to the assay plate sequentially with incubation at room temperature for 1-2 hours after each addition. Signals were recorded using EnVision 2104 Multilabel Plate Reader (Perkin Elmer, Waltham, MA) and titration curves were generated in GraphPad Prism (7.00, GraphPad, La Jolla, CA).
smiles,measurement,setting,value
CN(C)C(=O)C[C@H](NC(=O)c1ccc(S(=O)(=O)Nc2ccc(Cl)c3c(Cl)c[nH]c23)c(F)c1)c1ccccc1 [Compound 197],pIC50,DCAF15,5.00 to 6.00
same,pEC50,DCAF15/RBM39,> 6.00
Cc1nc2c(n1C)CCN(C(=O)c1cccc(S(=O)(=O)Nc3ccc(Cl)c4c(Cl)c[nH]c34)c1F)C2 [Compound 228],pIC50,DCAF15,> 6.00
same,pEC50,DCAF15/RBM39,> 6.00
O=S(=O)(Nc1ccc(Cl)c2c(Cl)c[nH]c12)c1ccc(Oc2ccc(F)cc2)cc1 [Compound 36],pIC50,DCAF15,4.00 to 5.00
same,pEC50,DCAF15/RBM39,5.00 to 6.00
O=C(NCCOCC1CC1)c1ccc(S(=O)(=O)Nc2ccc(Cl)c3c(Cl)c[nH]c23)c(F)c1 [Compound 187],pIC50,DCAF15,5.00 to 6.00
same,pEC50,DCAF15/RBM39,> 6.00
O=C(NCCCC(=O)N1CCCC1)c1ccc(S(=O)(=O)Nc2ccc(Cl)c3c(Cl)c[nH]c23)c(F)c1 [Compound 207],pIC50,DCAF15,> 6.00
same,pEC50,DCAF15/RBM39,> 6.00
CC(C)c1cc(S(=O)(=O)Nc2ccc(Cl)c3c(Cl)c[nH]c23)ccc1OCc1ccccc1 [Compound 233],pIC50,DCAF15,4.00 to 5.00
same,pEC50,DCAF15/RBM39,4.00 to 5.00
Cc1ccnc([C@@H](NC(=O)c2ccc(S(=O)(=O)Nc3ccc(Cl)c4c(Cl)c[nH]c34)c(F)c2)C2CC2)c1 [Compound 180],pIC50,DCAF15,5.00 to 6.00
same,pEC50,DCAF15/RBM39,5.00 to 6.00
COc1cccc(Oc2ccc(CNC(=O)c3ccc(S(=O)(=O)Nc4ccc(Cl)c5c(Cl)c[nH]c45)c(F)c3)cn2)c1 [Compound 182],pIC50,DCAF15,< 4.00
same,pEC50,DCAF15/RBM39,< 4.00
O=C(c1cccc(S(=O)(=O)Nc2ccc(Cl)c3c(Cl)c[nH]c23)c1F)N1CC[C@H](n2ccnn2)C1 [Compound 216],pIC50,DCAF15,> 6.00
same,pEC50,DCAF15/RBM39,> 6.00
Cc1cc(CNC(=O)c2ccc(S(=O)(=O)Nc3ccc(Cl)c4c(Cl)c[nH]c34)c(F)c2)nn1C [Compound 175],pIC50,DCAF15,5.00 to 6.00
same,pEC50,DCAF15/RBM39,> 6.00
O=S(=O)(Nc1ccc(Cl)c2c(Cl)c[nH]c12)c1cccc(OC2CCC3(CC2)CNC3)c1 [Compound 26],pIC50,DCAF15,4.00 to 5.00
same,pEC50,DCAF15/RBM39,> 6.00
O=S(=O)(Nc1ccc(Cl)c2c(Cl)c[nH]c12)c1cccc(OCc2ccc3c(c2)CNC3)c1 [Compound 65],pIC50,DCAF15,< 4.00
same,pEC50,DCAF15/RBM39,> 6.00
CN(C)C(=O)c1ccc(CCNC(=O)c2ccc(S(=O)(=O)Nc3ccc(Cl)c4c(Cl)c[nH]c34)c(F)c2)cc1 [Compound 195],pIC50,DCAF15,5.00 to 6.00
same,pEC50,DCAF15/RBM39,5.00 to 6.00
CNCCCCCOc1ccc(S(=O)(=O)Nc2ccc(Cl)c3c(Cl)c[nH]c23)cc1 [Compound 144],pIC50,DCAF15,5.00 to 6.00
same,pEC50,DCAF15/RBM39,> 6.00
O=S(=O)(Nc1ccc(Cl)c2c(Cl)c[nH]c12)c1ccc(OCCCC2CCNCC2)cc1 [Compound 99],pIC50,DCAF15,5.00 to 6.00
same,pEC50,DCAF15/RBM39,> 6.00
O=S(=O)(Nc1ccc(Cl)c2c(Cl)c[nH]c12)c1cccc(OCCC[C@@H]2CCCN2)c1 [Compound 96],pIC50,DCAF15,< 4.00
same,pEC50,DCAF15/RBM39,> 6.00
CC(C)C[C@H](NC(=O)c1cccc(S(=O)(=O)Nc2ccc(Cl)c3c(Cl)c[nH]c23)c1F)c1nc2ccccc2[nH]1 [Compound 213],pIC50,DCAF15,5.00 to 6.00
same,pEC50,DCAF15/RBM39,> 6.00
O=S(=O)(Nc1ccc(Cl)c2c(Cl)c[nH]c12)c1ccc(O[C@@H]2C[C@@H]3C[C@@H]3C2)cc1 [Compound 21],pIC50,DCAF15,< 4.00
same,pEC50,DCAF15/RBM39,5.00 to 6.00
NCCc1ccc(COc2cccc(S(=O)(=O)Nc3ccc(Cl)c4c(Cl)c[nH]c34)c2)cc1 [Compound 59],pIC50,DCAF15,4.00 to 5.00
same,pEC50,DCAF15/RBM39,5.00 to 6.00
CC[C@H](NC(=O)c1ccc(S(=O)(=O)Nc2ccc(Cl)c3c(Cl)c[nH]c23)c(F)c1)c1ccc2c(c1)OCCO2 [Compound 211],pIC50,DCAF15,5.00 to 6.00
same,pEC50,DCAF15/RBM39,5.00 to 6.00
CCc1cnc(N2CCC(CCCOc3cccc(S(=O)(=O)Nc4ccc(Cl)c5c(Cl)c[nH]c45)c3)CC2)nc1 [Compound 100],pIC50,DCAF15,< 4.00
same,pEC50,DCAF15/RBM39,< 4.00
O=c1oc2ccccc2n1CCCOc1cccc(S(=O)(=O)Nc2ccc(Cl)c3c(Cl)c[nH]c23)c1 [Compound 112],pIC50,DCAF15,< 4.00
same,pEC50,DCAF15/RBM39,5.00 to 6.00
CC(C)C[C@H](NC(=O)c1ccc(S(=O)(=O)Nc2ccc(Cl)c3c(Cl)c[nH]c23)c(F)c1)c1nc2ccccc2[nH]1 [Compound 212],pIC50,DCAF15,5.00 to 6.00
same,pEC50,DCAF15/RBM39,5.00 to 6.00
O=C(NCCCc1ccc(Cl)cc1)c1cccc(S(=O)(=O)Nc2ccc(Cl)c3c(Cl)c[nH]c23)c1F [Compound 208],pIC50,DCAF15,< 4.00
same,pEC50,DCAF15/RBM39,< 4.00
O=S(=O)(Nc1ccc(Cl)c2c(Cl)c[nH]c12)c1ccc(OC2CCC3(CC2)CNC3)cc1 [Compound 27],pIC50,DCAF15,5.00 to 6.00
same,pEC50,DCAF15/RBM39,5.00 to 6.00
O=S(=O)(Nc1ccc(Cl)c2c(Cl)c[nH]c12)c1ccc(OC[C@@H]2CCCNC2)cc1 [Compound 46],pIC50,DCAF15,4.00 to 5.00
same,pEC50,DCAF15/RBM39,5.00 to 6.00
CCc1nc(CN(C)C(=O)c2ccc(S(=O)(=O)Nc3ccc(Cl)c4c(Cl)c[nH]c34)c(F)c2)no1 [Compound 177],pIC50,DCAF15,5.00 to 6.00
same,pEC50,DCAF15/RBM39,> 6.00
O=S(=O)(Nc1ccc(Cl)c2c(Cl)c[nH]c12)c1ccc(Oc2ccc(Br)cc2)cc1 [Compound 35],pIC50,DCAF15,< 4.00
same,pEC50,DCAF15/RBM39,4.00 to 5.00
O=C(OCc1ccccc1)N1C[C@@H]2[C@@H](COc3ccc(S(=O)(=O)Nc4ccc(Cl)c5c(Cl)c[nH]c45)cc3)[C@@H]2C1 [Compound 50],pIC50,DCAF15,< 4.00
same,pEC50,DCAF15/RBM39,< 4.00
O=C(NCC1CCN(CCCc2ccccc2)CC1)c1cccc(S(=O)(=O)Nc2ccc(Cl)c3c(Cl)c[nH]c23)c1F [Compound 166],pIC50,DCAF15,5.00 to 6.00
same,pEC50,DCAF15/RBM39,> 6.00
O=S(=O)(Nc1ccc(Cl)c2c(Cl)c[nH]c12)c1cccc(OCCCC2CCNCC2)c1 [Compound 98],pIC50,DCAF15,4.00 to 5.00
same,pEC50,DCAF15/RBM39,5.00 to 6.00
CCN(CC)C(=O)c1ccc(CNC(=O)c2cccc(S(=O)(=O)Nc3ccc(Cl)c4c(Cl)c[nH]c34)c2F)cc1 [Compound 170],pIC50,DCAF15,5.00 to 6.00
same,pEC50,DCAF15/RBM39,5.00 to 6.00
O=S(=O)(Nc1ccc(Cl)c2c(Cl)c[nH]c12)c1ccc(OCCCCc2ccccn2)cc1 [Compound 140],pIC50,DCAF15,5.00 to 6.00
same,pEC50,DCAF15/RBM39,5.00 to 6.00
CC1(CCOc2cccc(S(=O)(=O)Nc3ccc(Cl)c4c(Cl)c[nH]c34)c2)CCNCC1 [Compound 74],pIC50,DCAF15,4.00 to 5.00
same,pEC50,DCAF15/RBM39,> 6.00
COc1cccc(Oc2ccc(CNC(=O)c3cccc(S(=O)(=O)Nc4ccc(Cl)c5c(Cl)c[nH]c45)c3F)cn2)c1 [Compound 181],pIC50,DCAF15,5.00 to 6.00
same,pEC50,DCAF15/RBM39,5.00 to 6.00
O=C(c1ccc(S(=O)(=O)Nc2ccc(Cl)c3c(Cl)c[nH]c23)c(F)c1)N1CCc2[nH]c(-c3ccccc3)nc2C1 [Compound 227],pIC50,DCAF15,5.00 to 6.00
same,pEC50,DCAF15/RBM39,5.00 to 6.00
Cc1ccnc([C@@H](NC(=O)c2cccc(S(=O)(=O)Nc3ccc(Cl)c4c(Cl)c[nH]c34)c2F)C2CC2)c1 [Compound 185],pIC50,DCAF15,5.00 to 6.00
same,pEC50,DCAF15/RBM39,5.00 to 6.00
